Results published in ChEMBL document CHEMBL1155923, “Anti-HBV agents. Part 1: Synthesis of alisol A derivatives: a new class of hepatitis B virus inhibitors” (Bioorg Med Chem Lett, 2008).

Legend:
[1] = test system: Hepatitis B virus; test: Antiviral activity against hepatitis B virus-infected human HepG2.2.15 cells assessed as inhibition of HBV e antigen secretion; type: functional, organism-based; details: HepG2 2.2.15
[2] = Cytotoxicity against human HepG2.2.15 cells; type: cell-based, HepG2 2.2.15
[3] = test system: Hepatitis B virus; test: Antiviral activity against hepatitis B virus-infected human HepG2.2.15 cells assessed as inhibition of HBV surface antigen secretion; type: functional, organism-based; details: HepG2 2.2.15
[4] = Selectivity index, ratio of CC50 for human HepG2.2.15 cells to IC50 for HBV e antigen secretion; type: functional
[5] = Selectivity index, ratio of CC50 for human HepG2.2.15 cells to IC50 for HBV surface antigen secretion; type: functional

| SMILES | IC50 [1] [µM] | CC50 [2] [µM] | IC50 [3] [µM] | Ratio CC50/IC50 [4] | Ratio CC50/IC50 [5] |
| --- | --- | --- | --- | --- | --- |
| CC(=O)O[C@@H](C[C@@H](C)[C@]12CC[C@@]3(C)[C@@]1(C[C@H](OC(C)=O)[C@H]1[C@@]4(C)CCC(=O)C(C)(C)[C@@H]4CC[C@@]13C)O2)[C@@H](OC(C)=O)C(C)(C)O | > 2000 | > 2000 | > 2000 |  |  |
| C[C@H](C[C@H](OC(=O)/C=C/c1ccccc1)[C@@H](OC(=O)/C=C/c1ccccc1)C(C)(C)O)C1=C2C[C@H](OC(=O)/C=C/c3ccccc3)[C@H]3[C@@]4(C)CCC(=O)C(C)(C)[C@@H]4CC[C@]3(C)[C@@]2(C)CC1 | > 1400 | > 1400 | > 1400 |  |  |
| C[C@H](C[C@H](OC(=O)/C=C/c1ccccc1)[C@@H](OC(=O)/C=C/c1ccccc1)C(C)(C)O)[C@]12CC[C@@]3(C)[C@@]1(C[C@H](OC(=O)/C=C/c1ccccc1)[C@H]1[C@@]4(C)CCC(=O)C(C)(C)[C@@H]4CC[C@@]13C)O2 | 1000 | > 1300 | > 1300 | >1.3 |  |
| C=C(C)[C@H](OC(=O)/C=C/c1ccccc1)[C@H](C[C@@H](C)C1=C2C[C@H](OC(=O)/C=C/c3ccccc3)[C@H]3[C@@]4(C)CCC(=O)C(C)(C)[C@@H]4CC[C@]3(C)[C@@]2(C)CC1)OC(=O)/C=C/c1ccccc1 | > 1800 | > 1800 | > 1800 |  |  |
| C=C(C)[C@H](OC(=O)CC)[C@H](C[C@@H](C)[C@]12CC[C@@]3(C)[C@@]1(C[C@H](OC(=O)CC)[C@H]1[C@@]4(C)CCC(=O)C(C)(C)[C@@H]4CC[C@@]13C)O2)OC(=O)CC | > 2500 | > 2500 | 160 |  | >16 |
| CCC(=O)O[C@@H](C[C@@H](C)C1=C2C[C@H](OC(=O)CC)[C@H]3[C@@]4(C)CCC(=O)C(C)(C)[C@@H]4CC[C@]3(C)[C@@]2(C)CC1)[C@@H](OC(=O)CC)C(C)(C)O | > 1400 | > 1400 | > 1400 |  |  |
| C[C@H](C[C@H](O)[C@@H](O)C(C)(C)O)C1=C2C[C@H](O)[C@H]3[C@@]4(C)CCCC(C)(C)[C@@H]4CC[C@]3(C)[C@@]2(C)CC1 | 5100 | < 80 | 80 | <0.016 | <1 |
| C[C@H](C[C@H](OC(=O)c1ccccc1)[C@@H](OC(=O)c1ccccc1)C(C)(C)O)[C@]12CC[C@@]3(C)[C@@]1(C[C@H](OC(=O)c1ccccc1)[C@H]1[C@@]4(C)CCC(=O)C(C)(C)[C@@H]4CC[C@@]13C)O2 | 1100 | > 1700 | > 1700 | >1.5 |  |
| CC(C)C(=O)O[C@@H](C[C@@H](C)C1=C2C[C@H](OC(=O)C(C)C)[C@H]3[C@@]4(C)CCC(=O)C(C)(C)[C@@H]4CC[C@]3(C)[C@@]2(C)CC1)[C@@H](OC(=O)C(C)C)C(C)(C)O | 900 | > 2200 | 1700 | >2.4 | >1.3 |
| C=C(C)[C@H](OC(=O)c1ccccc1)[C@H](C[C@@H](C)[C@]12CC[C@@]3(C)[C@@]1(C[C@H](OC(=O)c1ccccc1)[C@H]1[C@@]4(C)CCC(=O)C(C)(C)[C@@H]4CC[C@@]13C)O2)OC(=O)c1ccccc1 | > 1600 | > 1600 | > 1600 |  |  |
| C=C(C)[C@H](OC(C)=O)[C@H](C[C@@H](C)C1=C2C[C@H](OC(C)=O)[C@H]3[C@@]4(C)CCC(=O)C(C)(C)[C@@H]4CC[C@]3(C)[C@@]2(C)CC1)OC(C)=O | 29 | 520 | 28 | 18 | 18 |
| C[C@H](C[C@H](O)[C@@H](O)C(C)(C)O)[C@]12CC[C@@]3(C)[C@@]1(C[C@H](O)[C@H]1[C@@]4(C)CCC(=O)C(C)(C)[C@@H]4CC[C@@]13C)O2 | 1100 | 430 | 45 | 0.39 | 9.6 |
| C=C(C)[C@H](OC(=O)c1ccccc1)[C@H](C[C@@H](C)C1=C2C[C@H](OC(=O)c3ccccc3)[C@H]3[C@@]4(C)CCC(=O)C(C)(C)[C@@H]4CC[C@]3(C)[C@@]2(C)CC1)OC(=O)c1ccccc1 | > 2300 | > 2300 | > 2300 |  |  |
| Cc1ccc(S(=O)(=O)N/N=C2\CC[C@@]3(C)[C@@H](CC[C@@]4(C)[C@H]3[C@@H](O)CC3=C([C@H](C)C[C@H](O)[C@@H](O)C(C)(C)O)CC[C@@]34C)C2(C)C)cc1 | 29 | < 29 | 29 | <1 | <1 |
| C[C@H](C[C@H](OC(=O)c1ccccc1)[C@@H](OC(=O)c1ccccc1)C(C)(C)O)C1=C2C[C@H](OC(=O)c3ccccc3)[C@H]3[C@@]4(C)CCC(=O)C(C)(C)[C@@H]4CC[C@]3(C)[C@@]2(C)CC1 | > 1500 | > 1500 | > 1500 |  |  |
| C=C(C)[C@H](OC(=O)CC)[C@H](C[C@@H](C)C1=C2C[C@H](OC(=O)CC)[C@H]3[C@@]4(C)CCC(=O)C(C)(C)[C@@H]4CC[C@]3(C)[C@@]2(C)CC1)OC(=O)CC | > 12000 | > 1200 | > 12000 |  |  |
| CC(C)C(=O)O[C@@H](C[C@@H](C)[C@]12CC[C@@]3(C)[C@@]1(C[C@H](OC(=O)C(C)C)[C@H]1[C@@]4(C)CCC(=O)C(C)(C)[C@@H]4CC[C@@]13C)O2)[C@@H](OC(=O)C(C)C)C(C)(C)O | > 1900 | > 1900 | > 1900 |  |  |
| C=C(C)[C@H](OC(=O)C(C)C)[C@H](C[C@@H](C)C1=C2C[C@H](OC(=O)C(C)C)[C@H]3[C@@]4(C)CCC(=O)C(C)(C)[C@@H]4CC[C@]3(C)[C@@]2(C)CC1)OC(=O)C(C)C | > 1600 | > 1600 | > 1600 |  |  |
| C[C@H](C[C@H](O)[C@@H](O)C(C)(C)O)C1=C2C[C@H](O)[C@H]3[C@@]4(C)CCC(=O)C(C)(C)[C@@H]4CC[C@]3(C)[C@@]2(C)CC1 [ALISOL A] | > 2400 | 62 | 39 | <0.03 | 1.6 |
| CC(=O)O[C@@H](C[C@@H](C)C1=C2C[C@H](OC(C)=O)[C@H]3[C@@]4(C)CCC(=O)C(C)(C)[C@@H]4CC[C@]3(C)[C@@]2(C)CC1)[C@@H](OC(C)=O)C(C)(C)O | > 2000 | > 2000 | > 2000 |  |  |
| CCC(=O)O[C@@H](C[C@@H](C)[C@]12CC[C@@]3(C)[C@@]1(C[C@H](OC(=O)CC)[C@H]1[C@@]4(C)CCC(=O)C(C)(C)[C@@H]4CC[C@@]13C)O2)[C@@H](OC(=O)CC)C(C)(C)O | > 1200 | > 1200 | > 1200 |  |  |
| C=C(C)[C@H](OC(=O)/C=C/c1ccccc1)[C@H](C[C@@H](C)[C@]12CC[C@@]3(C)[C@@]1(C[C@H](OC(=O)/C=C/c1ccccc1)[C@H]1[C@@]4(C)CCC(=O)C(C)(C)[C@@H]4CC[C@@]13C)O2)OC(=O)/C=C/c1ccccc1 | > 1600 | > 1600 | > 1600 |  |  |
| C=C(C)[C@H](OC(C)=O)[C@H](C[C@@H](C)[C@]12CC[C@@]3(C)[C@@]1(C[C@H](OC(C)=O)[C@H]1[C@@]4(C)CCC(=O)C(C)(C)[C@@H]4CC[C@@]13C)O2)OC(C)=O | 28 | > 2600 | 24 | >93 | >108 |
| C=C(C)[C@H](OC(=O)C(C)C)[C@H](C[C@@H](C)[C@]12CC[C@@]3(C)[C@@]1(C[C@H](OC(=O)C(C)C)[C@H]1[C@@]4(C)CCC(=O)C(C)(C)[C@@H]4CC[C@@]13C)O2)OC(=O)C(C)C | > 1300 | > 1300 | > 1300 |  |  |
